Experiment [1] deals with T1, ABCG2 E211Q (Homo sapiens, UniProt Q9UNQ0, E211Q).
T1 construct: full-length ABCG2-WT in membrane vesicles
T1 sequence (Q9UNQ0 1-655 E211Q): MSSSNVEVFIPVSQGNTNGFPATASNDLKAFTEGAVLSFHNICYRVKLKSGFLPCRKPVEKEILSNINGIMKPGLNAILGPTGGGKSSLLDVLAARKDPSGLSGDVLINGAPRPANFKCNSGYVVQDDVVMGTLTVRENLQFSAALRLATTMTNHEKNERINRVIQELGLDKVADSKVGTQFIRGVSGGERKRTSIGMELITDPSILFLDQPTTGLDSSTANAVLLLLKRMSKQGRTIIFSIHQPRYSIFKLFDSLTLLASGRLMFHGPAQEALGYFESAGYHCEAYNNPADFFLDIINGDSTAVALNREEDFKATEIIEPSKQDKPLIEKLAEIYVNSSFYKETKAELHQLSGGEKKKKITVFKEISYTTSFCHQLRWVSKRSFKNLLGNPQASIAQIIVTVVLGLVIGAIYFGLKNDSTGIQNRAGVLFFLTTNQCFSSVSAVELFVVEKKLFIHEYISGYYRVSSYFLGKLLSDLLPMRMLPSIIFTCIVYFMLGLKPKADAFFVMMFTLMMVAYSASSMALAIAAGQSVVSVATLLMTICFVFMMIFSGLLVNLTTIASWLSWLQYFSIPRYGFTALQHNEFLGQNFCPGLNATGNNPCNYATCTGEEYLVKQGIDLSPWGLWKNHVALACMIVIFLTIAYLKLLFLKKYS
In words: biochemical. As to conditions: thermal stabilization, without ATP. Further details: species or system ABCG2 membrane vesicles; Hoechst 33342 concentration-dependent thermal stabilization of ABCG2, western blot read-out, without ATP. The text has this: (§1) The difference between ABCG-WT and ABCG2-N436A was not due to a difference in Hoechst 33342 initial uptake, given that the initial rate of uptake was linear and the slopes virtually identical for ABCG2-WT and ABCG2-N436A (Fig. 1d). The steady-state level of Hoechst 33342 was twofold lower in ABCG2-N436A cells (Fig. 1d). Steady-state drug levels represent an equilibrium between uptake and efflux rates, which can be used to estimate the rate of drug efflux. The twofold lower steady-state level of Hoechst 33342 in cells expressing ABCG2-N436A, therefore, indicates an estimated twofold increase in efflux (Fig. 1d). Direct monitoring of Hoechst 33342 efflux is not possible because of its avidity for binding to the minor groove of DNA, leaving little free Hoechst 33342 available for assessing efflux. This effect is also responsible for Hoechst 33342’s cytotoxicity, a property that we utilized as an additional approach to assess ABCG2 transport activity. […] The greater reduction in Hoechst 33342 cytotoxicity in ABCG2-N436A may be because Hoechst 33342 cytotoxicity occurs by a dual process of DNA binding and topoisomerase inhibition, both of which promote cytotoxic DNA damage. […] Consistent with the lower EC50 value of ATP (0.3 mM) for ABCG2-N436A, ABCG2-N436A was thermally stabilized by the non-hydrolyzable ATP analog AMP-PNP at lower concentrations than ABCG2-WT

The target of experiment [2] is T2, ABCG2 K86M (Homo sapiens, UniProt Q9UNQ0, K86M).
T2 construct: full-length ABCG2-WT in membrane vesicles
T2 sequence (Q9UNQ0 1-655 K86M): T1 sequence (Q9UNQ0 1-655 E211Q) with K86M, Q211E
In words: biochemical. Details: species or system ABCG2 membrane vesicles; Hoechst 33342 concentration-dependent thermal stabilization of ABCG2, western blot read-out, without ATP. Conditions: thermal stabilization, without ATP.
Text: as §1

The target in experiment [3] is T3, ABCG2 (Homo sapiens, UniProt Q9UNQ0).
T3 construct: full-length ABCG2-WT in membrane vesicles
As to the kind of experiment: isothermal shift assay on membranes; inhibition of vanadate-sensitive ATPase in membranes; transport assay. The class given is biochemical.
T3 sequence (Q9UNQ0 whole entry): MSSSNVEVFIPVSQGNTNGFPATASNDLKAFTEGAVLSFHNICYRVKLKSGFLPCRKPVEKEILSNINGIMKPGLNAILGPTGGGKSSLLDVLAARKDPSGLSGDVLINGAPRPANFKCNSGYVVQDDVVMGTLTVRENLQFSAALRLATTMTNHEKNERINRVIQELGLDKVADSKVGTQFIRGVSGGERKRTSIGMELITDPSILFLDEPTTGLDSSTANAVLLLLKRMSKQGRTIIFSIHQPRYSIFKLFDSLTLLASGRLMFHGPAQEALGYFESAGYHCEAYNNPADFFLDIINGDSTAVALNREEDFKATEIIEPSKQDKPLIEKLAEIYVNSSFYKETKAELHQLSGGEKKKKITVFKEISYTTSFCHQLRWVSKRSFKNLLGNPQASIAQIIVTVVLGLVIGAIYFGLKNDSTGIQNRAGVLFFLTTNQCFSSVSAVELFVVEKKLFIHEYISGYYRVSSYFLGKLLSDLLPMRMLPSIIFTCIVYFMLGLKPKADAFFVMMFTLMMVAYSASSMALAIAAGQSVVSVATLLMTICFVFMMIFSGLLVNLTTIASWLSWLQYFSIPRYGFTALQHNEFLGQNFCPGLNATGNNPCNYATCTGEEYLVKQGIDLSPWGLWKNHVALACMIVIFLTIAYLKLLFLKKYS

Experiment [4] has as its target T4, ABCG2 (Homo sapiens, UniProt Q9UNQ0).
T4 sequence (Q9UNQ0 1-655): T1 sequence (Q9UNQ0 1-655 E211Q) with Q211E
As to the kind of experiment: biochemical. Details: full-length ABCG2-WT in membrane vesicles; species or system ABCG2 membrane vesicles; Hoechst 33342 concentration-dependent thermal stabilization of ABCG2, western blot read-out, without ATP. Conditions: thermal stabilization, without ATP.

For experiment [5], the target named is T4, ABCG2. As to the kind of experiment: cell-based. Further details: full-length ABCG2-WT in MEF cells; species or system Abcg2-KO MEFs expressing human ABCG2-WT; Inhibition of ABCG2-mediated Hoechst 33342 efflux; intracellular Hoechst 33342 fluorescence accumulation, normalized to vector control. As to conditions: 0.5 uM Hoechst 33342 substrate, 2 h, 37 °C; read-out: IC50 for transport inhibition in WT. As to the method:
The intracellular accumulation of fluorescent Hoechst 33342, pheophorbide a, chlorin e6, and purpurin 18, ABCG2 substrates, was used to determine the function of ABCG2. […] Thereafter, the medium was removed, and cells were washed twice with 200 μL ice-cold PBS and the fluorescence of Hoechst 33342 was then quantitatively determined with a Synergy H4 microplate reader (BioTek, Winooski, VT, USA) at an excitation wavelength of 355 nm and an emission wavelength of 460 nm. The accumulation of Hoechst 33342 was normalized to protein concentration as determined using the BCA Protein Assay Kit (Pierce, Rockford, IL, USA). The data were normalized by the proportion accumulated relative (%) to vector control. For the time-dependent Hoechst 33342 accumulation assay, 10 μM Hoechst 33342 was treated for different time periods (0.5, 1, 1.5, 2, 5, 10, 20, 30, 60, and 90 min). Relative intracellular Hoechst 33342 levels in the MEFs were normalized to vector control at 90 min. For the other fluorescent substrate accumulation assay, 0.5 μM pheophorbide a, 5 μM chlorin e6, or 5 μM purpurin 18 were treated for 1 h at 37 °C in the dark. The intracellular accumulation of pheophorbide a, purpurin 18, or chlorin e6 was measured at an excitation wavelength of 405 nm and an emission wavelength of 667 nm. […] Thereafter, the medium was removed and cells were washed twice with 1 mL ice-cold PBS. […] The total radioactivity was measured by liqu Apparent EC50 and IC50 values were calculated from dose-response data using nonlinear regression analysis. All experiments were independently repeated at least three times. […] Non-polar residues are grey, polar residues are green, and acidic residues are red.

Experiment [6] deals with T4, ABCG2. In words: cell-based. Further details: full-length ABCG2-WT in MEF cells; species or system MEF (mouse embryonic fibroblasts) expressing human ABCG2-WT; Inhibition of ABCG2-mediated Hoechst 33342 transport; intracellular Hoechst 33342 fluorescence accumulation. As to conditions: ABCG2-WT, 0.5 uM Hoechst 33342; read-out: Hoechst 33342 transport inhibition IC50. As to the method: The intracellular accumulation of fluorescent Hoechst 33342, pheophorbide a, chlorin e6, and purpurin 18, ABCG2 substrates, was used to determine the function of ABCG2. For Hoechst 33342 accumulation assay, MEFs were seeded into a 96-well black clear bottom plate (Corning #3603) at 20,000 cells/well and 0.5 μM Hoechst 33342, and either [compound left out] or the test inhibitor (0.002–10 μM) were added to the culture medium followed by incubation for 2 h at 37 °C in the dark. Thereafter, the medium was removed, and cells were washed twice with 200 μL ice-cold PBS and the fluorescence of Hoechst 33342 was then quantitatively determined with a Synergy H4 microplate reader (BioTek, Winooski, VT, USA) at an excitation wavelength of 355 nm and an emission wavelength of 460 nm. The accumulation of Hoechst 33342 was normalized to protein concentration as determined using the BCA Protein Assay Kit (Pierce, Rockford, IL, USA). […] The intracellular accumulation of pheophorbide a, purpurin 18, or chlorin e6 was measured at an excitation wavelength of 405 nm and an emission wavelength of 667 nm. […] The total radioactivity was measured by liqu Fig. 4 N436A substitution affects inhibitor interaction. a–d Representative snapshots from MDS of tariquidar interacting with ABCG2. a ABCG2-WT with residues within 4 Å of tariquidar are in surface representation. […]

In general, EC50 refers to the midpoint of the concentration-response curve. In general, IC50 refers to the concentration that inhibits the measured activity by half.

Changes are numbered by the printed parent chain.

Consider `CCOc1ccc(-c2nc3cc(-c4nc5cc(N6CCN(C)CC6)ccc5[nH]4)ccc3[nH]2)cc1` [Hoechst 33342], for which the concentration for a half-maximal effect (EC50) was determined as 16 ± 3 µM in experiment [1], 31 ± 1 µM in experiment [2] and 8.8 ± 1.9 µM in experiment [4]. Also, in experiment [3], the IC50 came out at 35 µM.

Consider `CNC(=O)c1cc(Oc2ccc(NC(=O)Nc3ccc(Cl)c(C(F)(F)F)c3)cc2)ccn1` [Sorafenib], for which, in experiment [5], the half-maximal inhibitory concentration (IC50) turned out to be 4.34 µM. Regarding `C#Cc1cccc(Nc2ncnc3cc(OCCOC)c(OCCOC)cc23)c1` [Erlotinib], the IC50 in experiment [5] is 0.77 µM. Take `CCCS(=O)(=O)Nc1ccc(F)c(C(=O)c2c[nH]c3ncc(-c4ccc(Cl)cc4)cc23)c1F` [Vemurafenib]: the half-maximal inhibitory concentration (IC50) in experiment [5] was 4.15 µM. Same read-out and setting: as for `COc1cc2nccc(Oc3ccc(NC(=O)C4(C(=O)Nc5ccc(F)cc5)CC4)cc3)c2cc1OC` [Cabozantinib], the figure is 2.4 µM.

On to `CNC(=O)c1ccccc1Sc1ccc2c(/C=C/c3ccccn3)n[nH]c2c1` [Axitinib], for which, in experiment [6], the 50% inhibitory concentration (IC50) was found to be 6.04 µM.
